Test results published in US12404246B1, “2-aminomethylimidazole mimics of NS4A and their effect thereof on hepatitis C virus NS3 protease” (King Abdulaziz University, priority 2024, dated 2025).

Tests used:
[1] = target: T1, HCV NS3 domain of genotype 4a (Hepatitis C virus genotype 4a, UniProt O39929); assay: Binding assay by Differential Static Light Scattering (DSLS): aggregation temperature of NS3; details: for ΔTagg (aggregation temperature shift of NS3): NS3 domain 15.0 μM with equimolar compound, shift against NS3 alone
T1 construct: NS3 protease domain 1-181 aa+N-terminal T7 tag and C-terminal His tag; T7 tag (N); made in house; host or cells: E. coli Rosette (DE3) pLysS
From the text: In an embodiment, DSLS (Senisterra, Markin et al. 2006) is a preferred method to compare the relative binding potency for binding of a compound of Formula I with HCV NS3. DSLS measure the proteins aggregation temperature (Tagg) as an indicator of its stability (Davis, Walker et al. 2010). It is known that the binding of small molecules to proteins causes shifts of the aggregation temperature (ΔTagg) to higher temperature (Shahul Hameed, Haider et al. 2018). One aspect of this invention is using ΔTagg determination as a method to determine the potency of binding of compounds belonging to formula I to the HCV NS3 protease, in comparison to the native NS4A.
The NS3 domain (15.0 μM), alone or mixed with an equimolar equivalent of tested compound or the NS4A, was added to a binding buffer (20.0 mM HEPES, 10.0 mM DTT, 200 mM NaCl, pH 7.60) to a final volume 100 μL. The mixture was incubated at room temperature with gentle shaking for 2 h. Afterwards, 10 μL of the mixture was transferred into a clear bottomed Nunc 384-well plate and covered by 10 μL paraffin oil to minimize evaporation. Protein aggregation was monitored by tracking the change in scattered light that was detected by a charged coupled device (CCD) camera. Snapshot images of the plate were taken every 0.5° C. The pixel intensities in a preselected region of each well were integrated using image analysis software to generate a value representative of the total amount of scattered light in that region. These intensities were then plotted against temperature for each sample well and fitted to obtain the aggregation temperature (Tagg). Aggregation was monitored and analyzed to assess the effect of NS4A and its synthetic analogues on the stability of the NS3 as an indicator of binding. Each experiment was repeated three times (Triplicate). Statistical analysis was performed using GraphPad Prism v. 8.0® and Instat® v. 3.10 software. The Tagg for the compound was only considered if its […] of the calculated Tagg value.
Each experiment was run as triplicate (Experiment 1, 2 and 3) and the standard deviations (ST.DEV.) were calculated. (results table FIG. 31).

[2] = target: HCV NS3 (Hepatitis C virus genotype 4a, UniProt O39929); details: mixed with a substrate peptide; cited from earlier work

SMILES	ΔTagg (aggregation temperature shift of NS3) [1]	also measured
CNC(=O)CNC(=O)c1cnc(CNCCNC(C)=O)[nH]1 [Comp 8, 2-(((2-acetamidoethyl)amino)methyl)-N-(2-(methylamino)-2-oxoethyl)-1H-imidazole-5-carboxamide]	0.48 °C	–
CC(C)CCCCCNCc1ncc(C(=O)NCc2ccccn2)[nH]1 [Comp 12, 2-(((6-methylheptyl)amino)methyl)-N-(pyridin-2-ylmethyl)-1H-imidazole-5-carboxamide]	0.57 °C	–
CC(=O)NCCNCc1nc(C(=O)NCc2ccccn2)c[nH]1 [Comp 13, 2-(((2-acetamidoethyl)amino)methyl)-N-(pyridin-2-ylmethyl)-1H-imidazole-5-carboxamide]	1.35 °C	affinity towards the HCV NS3 protein compared to the native viral peptide cofactor NS4A ([1]; DSLS, FIG. 30-32): equal or higher affinity; Tagg (aggregation temperature of NS3 mixed with the substance) ([1]; NS3 domain 15.0 μM with equimolar substance, incubated 2 h, triplicate, NS3 alone Tagg 43.22° C.): 44.40 °C; ΔTagg higher than that of the HCV NS4A ([1]; relative to the shift caused by NS4A): 14%
CCCCCCNC(=O)c1ncc(C(=O)NCCCCNC(=N)N)[nH]1 [N5-(4-guanidinobutyl)-N2-n-hexyl-1H-imidazole-2,5-dicarboxamide]	–	inhibition of HCV NS3 protease function [2]: able to inhibit the HCV NS3 from functioning as a protease
CCCCCCNCc1nc(C(=O)NCc2ccccn2)c[nH]1 [Comp 9, 2-((hexylamino)methyl)-N-(pyridin-2-ylmethyl)-1H-imidazole-4-carboxamide]	0.91 °C	–
CCCCCCNCc1ncc(C(=O)NCc2ccccn2)[nH]1 [Comp 3, 2-((hexylamino)methyl)-N-(pyridin-2-ylmethyl)-1H-imidazole-5-carboxamide]	0.47 °C	–
O=C(NCc1ccccn1)c1cnc(CNCCOC2CCCCC2)[nH]1 [Comp 10, 2-(((2-(cyclohexyloxy)ethyl)amino)methyl)-N-(pyridin-2-ylmethyl)-1H-imidazole-5-carboxamide]	0.43 °C	–
